# Test results: patent publication US9522888B2, “Substituted bicyclic compounds” (BRISTOL-MYERS SQUIBB COMPANY, priority 2014, dated 2016)
# Entries after “also recorded” stand apart in the source; their conditions may differ.
# Tests used:
# circulating lymphocytes [1] = test: Blood Lymphocyte Reduction (BLR) assay in rat; format: in vivo, Lewis rats; conditions: oral, 0.1 mg/kg; for Percent reduction vs. control at 24 hr post-dose: blood lymphocytes; for lymphocyte reduction: rodent BLR assay, 24 hours post-dose, versus vehicle treated group
# Procedure: (§1) Blood Lymphocyte Reduction (BLR) Assay in Rodent:
# (§2) Lewis rats or BALB/c mice were dosed orally with vehicle alone (polyethylene glycol 300, “PEG300”) or with test compounds. Compounds were dosed as a solution or suspension in the vehicle, adjusted to reflect the free amount of test article in the event that salt forms are utilized. Blood was drawn at 24 hr and blood lymphocyte counts were determined on an ADVIA 120 Hematology Analyzer (Siemens Healthcare Diagnostics). The results were measured as a reduction in the percentage of circulating lymphocytes as compared to the vehicle treated group at the time of measurement. The results represent the average results of all animals within each treatment group (n=2-4).
# circulating lymphocytes [2] = test: Blood Lymphocyte Reduction (BLR) assay in mouse; format: in vivo, BALB/c mice; conditions: oral, 0.5 mg/kg; for lymphocyte reduction: mice, 24 hours post dose
# Procedure: as §1, §2
# [3] = system: MOG35-55 induced EAE, clinical score; test: Mouse Experimental Autoimmune Encephalomyelitis Assay (EAE); format: in vivo, C57BL/6 mice; conditions: for Clinical scores on day 22, Mean: C57BL/6 mice, prophylactic oral; for inhibition of disease progression as measured by clinical scores / Clinical scores on day 21 (Mean): C57Bl/6 mice; for inhibition of disease progression as measured by clinical scores: prophylactic oral dosing regimen, result in words; for Clinical scores on day 21 (Mean): mouse EAE, prophylactic oral dosing
# anti-dsDNA antibodies = test: MRL/lpr lupus model: anti-dsDNA antibody titers (ELISA); format: in vivo, Male MRL/lpr mice; conditions: MRL/lpr mice; for Anti-dsDNA antibody titers (23 weeks of age) (Mean): ratio to pooled MRL/lpr immune serum titer
# Procedure: (§3) MRL/lpr is a spontaneous model of lupus. Male MRL/lpr mice (Jackson Laboratory) at the age of 12-14 weeks were enrolled for the study (N=12). Mice were dosed p.o. daily with vehicle (18.4% (w/v) hydroxypropyl-b-cyclodextrin in 13.8 mM citric acid) or with Example 681 at 0.06, 0.3, 1.5 mg/kg. Mice were bled every other week for anti-dsDNA antibodies measured by ELISA using pooled serum from diseased MRL/lpr mice as a positive comparator in each assay. The data were expressed in arbitrary units as a ratio of the titer of the test serum to the titer of the pooled MRL/lpr immune serum.
# kidney histology score = test: MRL/lpr lupus model: kidney histological analysis; format: in vivo, Male MRL/lpr mice; conditions: MRL/lpr mice; for Kidney Histology (nephritis) 23 weeks of age (Mean): total score, highest possible score=36
# Procedure: as §3
# At the end of study, one kidney was collected into 10% neutral buffered formalin and ZincTris fixatives. Fixed tissues were processed into paraffin blocks, sectioned at 3 μm, and stained with H&E or PASH. Kidney sections were graded using following criteria: Glomerular Damage: 1. Mesangial matrix thickening, cell proliferation, 2. Crescent formation, cellular deposits/casts in Bowman's space, 3. Cellular infiltration, mononuclear cells in glomerular tufts, 4. Fibrosis of Bowman's capsule. Tubular damage: 1. Infiltration of mononuclear cells, 2. Severity of tubular damage, 3. Protein casts. Tubulo-interstitial damage: 1. Fibrosis, 2. Infiltration of mononuclear cells. Each subcategory was assigned a score from 0-4, with the scores for glomerular indices representing the mean from 20 glomeruli per kidney. The total score for each mouse was the sum of the above 9 subcategories, with the highest possible score=36.
# [4] = system: adjuvant-induced arthritis, hind paw volume; test: Rat Adjuvant Induced Arthritis Assay (AA); format: in vivo, Male Lewis rats; conditions: Lewis rat; for paw swelling (mL) on day 22, Mean: once daily oral prophylactic
# Procedure: Rat Adjuvant Induced Arthritis Assay (AA) The rat adjuvant-induced arthritis model is an animal model for human rheumatoid arthritis. Male Lewis rats (150-175 g; Harlan, n=8 treatment group) were immunized at the base of the tail with 100 μl of 10 mg/ml freshly ground Mycobacterium butyricum (Difco Laboratories) in incomplete Freund's adjuvant (sigma). Animals were dosed once daily with the test article (as a solution or suspension in the vehicle) or vehicle alone (polyethylene glycol 300, “PEG300”) starting from the day of immunization. The volumes of their hind paws were measured in a water displacement plethysmometer (Ugo Basile, Italy). The baseline paw measurements were taken before onset of the disease (between day 7 to day 10). […] All procedures involving animals were reviewed and approved by the Institutional Animal Care Use Committee.
# [5] = system: guinea pig myelin basic protein induced EAE, clinical score; test: Rat Experimental Autoimmune Encephalomyelitis (EAE); format: in vivo, Female Lewis rats; conditions: Lewis rat; for Clinical Score on Day 11 (Mean): rat EAE, prophylactic oral dosing
# Procedure: Rat Experimental Autoimmune Encephalomyelitis (EAE):
# Female Lewis rats (150-200 g; Harlan) were immunized at the base of the tail with 0.1 ml of a complete Freund's adjuvant emulsion containing 0.5 mg/mL guinea pig myelin basic protein (Genemed Synthesis) and 2 mg/mL Mycobacterium butyricum (Difco). Beginning on Day 7, rats (n=11/group) were scored individually at least 3×/wk according to the following scheme:
# Average clinical scores were calculated for each treatment group on each day of assessment.
# [6] = p.o. daily 0.06, 0.3, 1.5 mg/kg, result in words
# [7] = prophylactic oral dosing regimen, result in words
smiles,measurement,setting,value
"COc1ccccc1CC[C@@H]1CCc2cc([C@H]3CC[C@](N)(CO)C3)ccc2C1 [Example 681, ((1R,3S)-1-amino-3-((S)-6-(2-methoxyphenethyl)-5,6,7,8-tetrahydronaphthalen-2-yl)cyclopentyl)methanol]",Percent reduction vs. control at 24 hr post-dose,circulating lymphocytes [1],53%
same,lymphocyte reduction,circulating lymphocytes [1],53%
same,lymphocyte reduction,circulating lymphocytes [2],85%
same,Mouse Blood Lymphocyte Reduction Assay at 24 hr post-dose Percent reduction vs. control,circulating lymphocytes [2],85%
same,"Clinical scores on day 22, Mean",[3]; 0.1 mg/kg,3.1
same,"Clinical scores on day 22, Mean",[3]; 0.5 mg/kg,1.1
same,"Clinical scores on day 22, Mean",[3]; 2 mg/kg,0.8
same,inhibition of disease progression as measured by clinical scores,[3],showed inhibition of disease progression; also recorded: inhibit disease progression
same,Anti-dsDNA antibody titers (23 weeks of age) (Mean),anti-dsDNA antibodies; 0.06 mg/kg p.o. daily,1.861 arbitrary units
same,Anti-dsDNA antibody titers (23 weeks of age) (Mean),anti-dsDNA antibodies; 0.3 mg/kg p.o. daily,0.978 arbitrary units
same,Anti-dsDNA antibody titers (23 weeks of age) (Mean),anti-dsDNA antibodies; 1.5 mg/kg p.o. daily,1.023 arbitrary units
same,inhibition of disease progression as measured by anti-dsDNA titers,anti-dsDNA antibodies; [6],showed inhibition of disease progression
same,Kidney Histology (nephritis) 23 weeks of age (Mean),kidney histology score; 0.06 mg/kg p.o. daily,10.13
same,Kidney Histology (nephritis) 23 weeks of age (Mean),kidney histology score; 0.3 mg/kg p.o. daily,10.00
same,Kidney Histology (nephritis) 23 weeks of age (Mean),kidney histology score; 1.5 mg/kg p.o. daily,12.63
same,inhibition of disease progression as measured by kidney histology,kidney histology score; [6],showed inhibition of disease progression
"CCOCCC[C@@H]1CCc2cc([C@H]3CC[C@](N)(CO)C3)ccc2C1 [Example 679, ((1R,3S)-1-amino-3-((S)-6-(3-ethoxypropyl)-5,6,7,8-tetrahydronaphthalen-2-yl)cyclopentyl)methanol]",Percent reduction vs. control at 24 hr post-dose,circulating lymphocytes [1],65%
same,lymphocyte reduction,circulating lymphocytes [1],65%
same,lymphocyte reduction,circulating lymphocytes [2],59%
same,Mouse Blood Lymphocyte Reduction Assay at 24 hr post-dose Percent reduction vs. control,circulating lymphocytes [2],59%
same,"paw swelling (mL) on day 22, Mean",[4]; 0.1 mg/kg,1.55 mL
same,"paw swelling (mL) on day 22, Mean",[4]; 0.5 mg/kg,0.36 mL
same,"paw swelling (mL) on day 22, Mean",[4]; 2.50 mg/kg,0.00 mL
same,inhibition of disease progression as measured by reduced paw swelling,[4]; [7],showed inhibition of disease progression
same,inhibition of disease progression as measured by clinical scores,[3],showed inhibition of disease progression; also recorded: inhibit disease progression
same,Clinical scores on day 21 (Mean),[3]; 0.6 mg/kg,2.9
same,Clinical scores on day 21 (Mean),[3]; 3 mg/kg,1.8
same,Clinical scores on day 21 (Mean),[3]; 15 mg/kg,1.3
same,inhibition of disease progression as measured by reduced clinical scores,[5]; [7],showed inhibition of disease progression
same,Clinical Score on Day 11 (Mean),[5]; 0.3 mg/kg,0.36
same,Clinical Score on Day 11 (Mean),[5]; 1.0 mg/kg,0.09
same,Clinical Score on Day 11 (Mean),[5]; 3.0 mg/kg,0.02
